Here are results for ten compounds from patent US7202239B2, “Cyclohexylphenyl carboxamides tocolytic oxytocin receptor antagonists” (Wyeth, priority 2001, dated 2007).

The structures appear in SMILES notation.

The target of this assay is human vasopressin V1a receptor subtype (Homo sapiens, UniProt P37288). The assay is described as follows: Vasopressin binding in CHO cell membranes expressing human vasopressin V1a subtype receptors. The note with it: 100 nM, [3H]Manning ligand. The text has this: Vasopressin Binding in Chinese Hamster Ovary Cell Membranes Expressing Human Vasopressin V1a Subtype Receptors
Chinese hamster ovary cells (CHO cells) stably transfected with the human vasopressin V1a subtype receptors were either obtained from Biosignal Inc., 1744 rue Williams, Montreal, Quebec, Canada or obtained from M. Thibonnier, Case Western Reserve University School of Medicine, Cleveland, Ohio. A. Passaging and Amplification of Cells: CHO cells transfected with the human vasopressin V1a subtype receptors obtained from M. Thibonnier (pZeoSV vector) are allowed to grow to confluency (approx. >90%) in T-150 flasks under sterile conditions, in a cell culture medium of F-12 Nutrient Mixture (HAM) with L-glutamine (Gibco Cat. # 11765-054) containing 15 mM HEPES (Gibco Cat. 15630-080), 1% antibiotic/antimycotic (add 5 mL 100×, Gibco Cat. 15240-062 per 500 mL F-12), 250 μg/mL Zeocin (add 1.25 mL of 100 mg/mL Invitrogen R-250-01 per 500 mL F-12) and 10% Fetal Bovine Serum (Qualified, heat inactivated, Gibco Cat. # 16140-063). The medium is removed by aspiration and the cells are washed with 10 mL of Hank's Balanced Salt solution (Gibco Cat. # 14175-095). The salt solution is removed by aspiration and the cells are trypsinized with 5 mL of trypsin-EDTA (0.05% trypsin, 0.53 mM EDTA-4Na, Gibco Cat. # 25300-070) for 1 min. The trypsin is removed by aspiration and the cells dislodged by tapping. Cell Culture medium (eg, 30 mL for 1:30 split) is immediately added and mixed well to inactivate trypsin. 1 mL of detached cells is added to new culture flasks containing fresh cell culture medium (eg, into 25 mL per T-150 flask), and mixed gently. The cells are incubated at 37° C. in 5% CO2. The medium is changed at 3 to 4 days interval (or as appropriate). The cells grow to confluency (approx. >75%–95%) within 7–8 days. All steps are done under sterile conditions. B. Membrane Preparation: The cells are washed twice gently with Hank's Balanced Salt solution (e.g,. use 10 mL per T-150 flask). The excess is removed and the cells are bathed for 15–30 min. in an enzyme-free Cell Dissociation Buffer (e.g. use 8 mL Hank's Based, Gibco Cat. # 13150-016 per T-150 flask) until the cells are loosened. The contents are transferred to centrifuge tubes (50 mL) kept in an ice bath. All subsequent steps are done at 4° C. The tubes are centrifuged at 300×g for 15 min (1380 rpm on SORVAL, Model RT6000D, using rotor for the 50 mL tubes). The supernatant is discarded and the cells suspended in homogeneizing buffer(10 mM Tris-HCl containing 0.25 M sucrose and 1 mM EDTA, pH 7.4) ensuring that the volume of the buffer is about ten times the volume of the cell pellet. The cells are pooled into a centrifuge tube (50 mL) and homogenized with Polytron at setting 6 for 10 sec. The homogenate is transferred into a Potter-Elvjehm homogenizer and homogenized with 3 strokes. The homogenate is centrifuged at 1500× g for 10 min at 4° C. (3100 rpm using SORVAL, model RT6000D, using the rotor for 50 mL tubes). The pellet is discarded. The supernatant is centrifuged at 100,000×g for 60 min. at 4° C. (Beckman L8-80M ultracentrifuge; spin at 37,500 rpm with rotor type 70 Ti for 50 mL tubes; 38,000 rpm with type 80Ti for 15 mL tubes; or 35,800 rpm with rotor type 45Ti). The supernantant is discarded and the pellet suspended in 3 to 4 mL of Tris buffer (50 mM TRIS-HCl, pH 7.4). The protein content is estimated by the Bradford or Lowry method. The volume of the membrane suspension is adjusted with the membrane buffer (50 mM Tris-HCl containing 0.1% BSA and 0.1 mM PMSF) to give 3.0 mg/mL (or as appropriate) of protein. The membranes are aliquoted and stored at −70° C. C. […]

Chain of human vasopressin V1a receptor subtype (P37288 whole entry): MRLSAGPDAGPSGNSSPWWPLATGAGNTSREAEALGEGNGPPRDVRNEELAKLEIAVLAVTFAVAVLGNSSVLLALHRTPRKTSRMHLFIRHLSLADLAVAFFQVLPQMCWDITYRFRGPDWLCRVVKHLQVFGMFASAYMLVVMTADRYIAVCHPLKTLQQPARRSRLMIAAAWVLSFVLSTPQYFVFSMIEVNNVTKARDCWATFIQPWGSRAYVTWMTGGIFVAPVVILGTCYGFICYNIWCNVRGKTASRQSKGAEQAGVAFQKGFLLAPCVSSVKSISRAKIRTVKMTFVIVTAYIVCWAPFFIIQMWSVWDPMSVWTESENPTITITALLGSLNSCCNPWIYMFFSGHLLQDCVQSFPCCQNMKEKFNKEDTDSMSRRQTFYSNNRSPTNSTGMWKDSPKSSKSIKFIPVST

As for `O=C(c1ccc2n1Cc1ccccc1N(C(=O)c1ccc(C3CCCCC3)cc1)C2)N1CCN(CCO)CC1` [Example 48, [10-(4-Cyclohexyl-benzoyl)-10,11-dihydro-5H-pyrrolo[2,1-c][1,4]benzodiazepin-3-y][4-(2-hydroxyethyl)-1-piperazinyl]methanone], the “V1a % inhibition at 100 nM” value was determined as 35%. For orientation: inhibition means the change of the read-out against control, counted positive when it falls. As for `O=C(NCCc1ccccn1)c1ccc2n1Cc1ccccc1N(C(=O)c1ccc(C3CCCCC3)cc1)C2` [Example 49, 10-(4-Cyclohexyl-benzoyl)-N-[2-(2-pyridinyl)ethyl]-10,11-dihydro-5H-pyrrolo[2,1-c][1,4]benzodiazepine-3-carboxamide], the inhibition at 0.1 µM amounted to 0%. The same measure, in the same setting: the result for `O=C(NCc1ccccn1)c1ccc2n1Cc1ccccc1N(C(=O)c1ccc(C3CCCCC3)cc1)C2` [Example 50, 10-(4-Cyclohexyl-benzoyl)-N-(2-pyridinylmethyl)-10,11-dihydro-5H-pyrrolo[2,1-c][1,4]benzodiazepine-3-carboxamide] reads 3%; that for `O=C(NCc1cccnc1)c1ccc2n1Cc1ccccc1N(C(=O)c1ccc(C3CCCCC3)cc1)C2` [Example 51, 10-(4-Cyclohexyl-benzoyl)-N-(3-pyridinylmethyl)-10,11-dihydro-5H-pyrrolo [2,1-c][1,4]benzodiazepine-3-carboxamide], -1%. Still for that read-out and setting: the result for `CN(CCc1ccccn1)C(=O)c1ccc2n1Cc1ccccc1N(C(=O)c1ccc(C3CCCCC3)cc1)C2` [Example 52, 10-(4-Cyclohexyl-benzoyl)-N-methyl-N-[2-(2-pyridinyl)-ethyl]-10,11-dihydro-5H-pyrrolo[2,1-c][1,4]benzodiazepine-3-carboxamide] reads 19%; that for `O=C(NCc1ccncc1)c1ccc2n1Cc1ccccc1N(C(=O)c1ccc(C3CCCCC3)cc1)C2` [Example 53, 10-(4-Cyclohexyl-benzoyl)-N-(4-pyridinylmethyl)-10,11-dihydro-5H-pyrrolo[2,1-c][1,4]benzodiazepine-3-carboxamide], 20%. As to `O=C(c1ccc2n1Cc1ccccc1N(C(=O)c1ccc(C3CCCCC3)cc1)C2)N1CCN(c2ccncc2)CC1` [Example 54, [10-(4-Cyclohexyl-benzoyl)-10,11-dihydro-5H-pyrrolo[2,1-c][1,4]benzpdiazepin-3-yl][4-(4-pyridinyl)-1-piperazinyl]-methanone], the “V1a % inhibition at 100 nM” value amounted to 0%. As to `CN(CCc1ccncc1)C(=O)c1ccc2n1Cc1ccccc1N(C(=O)c1ccc(C3CCCCC3)cc1)C2` [Example 55, 10-(4-Cyclohexyl-benzoyl)-N-methyl-N-[2(4-pyridinyl)ethyl]-10,11-dihydro-5H-pyrrolo[2,1-c][1,4]benzodiazepine-3-carboxamide], the inhibition at 0.1 µM was found to be 50%. Turning to `O=C(c1ccc(C2CCCCC2)cc1)N1Cc2ccc(C(=O)n3ccnc3)n2Cc2ccccc21` [Example 56, 1H-Imidazol-1-yl-[10-(4-cyclohexyl-benzoyl)-10,11-dihydro-5H-pyrrolo[2,1-c][1,4]benzodiazepin-3-yl]-methanone], the inhibition at 0.1 µM stood at 16%. Consider `CN(Cc1cccnc1)C(=O)c1ccc2n1Cc1ccccc1N(C(=O)c1ccc(C3CCCCC3)cc1)C2` [Example 57, 10-(4-Cyclohexyl-benzoyl)-N-methyl-N-(3-pyridinylmethyl)-10,11-dihydro-5H-pyrrolo[2,1-c][1,4]benzodiazepine-3-carboxamide], for which the inhibition at 0.1 µM was -5%.
